The assay deals with T1, rat T1R1/T1R3 umami taste receptor (Rattus norvegicus, UniProt Q9Z0R8).
T1 construct: expressed in transfected cells; host or cells: HEK-293 cells, transient transfection, pEAK10 expression vector
T1 sequence (Q9Z0R8 20-840): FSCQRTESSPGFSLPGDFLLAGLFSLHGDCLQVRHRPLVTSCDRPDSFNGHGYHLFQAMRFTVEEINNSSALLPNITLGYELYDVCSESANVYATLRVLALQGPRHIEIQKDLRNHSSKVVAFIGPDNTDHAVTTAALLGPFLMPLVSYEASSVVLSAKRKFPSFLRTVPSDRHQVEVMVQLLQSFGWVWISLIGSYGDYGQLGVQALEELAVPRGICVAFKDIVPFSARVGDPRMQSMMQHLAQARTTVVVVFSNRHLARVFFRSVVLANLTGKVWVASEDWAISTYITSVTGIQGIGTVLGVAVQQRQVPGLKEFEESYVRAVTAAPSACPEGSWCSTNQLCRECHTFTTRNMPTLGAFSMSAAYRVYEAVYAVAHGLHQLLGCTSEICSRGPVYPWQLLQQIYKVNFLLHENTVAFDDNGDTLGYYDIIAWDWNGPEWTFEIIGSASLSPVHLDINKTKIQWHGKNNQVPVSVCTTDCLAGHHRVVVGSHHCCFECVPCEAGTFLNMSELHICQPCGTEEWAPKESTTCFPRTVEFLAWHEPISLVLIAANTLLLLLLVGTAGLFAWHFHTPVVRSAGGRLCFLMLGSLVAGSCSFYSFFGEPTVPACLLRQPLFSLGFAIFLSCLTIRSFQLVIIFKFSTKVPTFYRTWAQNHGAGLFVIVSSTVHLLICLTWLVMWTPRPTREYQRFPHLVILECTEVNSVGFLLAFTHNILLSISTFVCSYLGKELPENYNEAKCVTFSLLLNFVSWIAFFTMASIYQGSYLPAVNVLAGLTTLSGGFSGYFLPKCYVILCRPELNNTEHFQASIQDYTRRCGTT
T1 sequence (Q923K1 21-858 partner): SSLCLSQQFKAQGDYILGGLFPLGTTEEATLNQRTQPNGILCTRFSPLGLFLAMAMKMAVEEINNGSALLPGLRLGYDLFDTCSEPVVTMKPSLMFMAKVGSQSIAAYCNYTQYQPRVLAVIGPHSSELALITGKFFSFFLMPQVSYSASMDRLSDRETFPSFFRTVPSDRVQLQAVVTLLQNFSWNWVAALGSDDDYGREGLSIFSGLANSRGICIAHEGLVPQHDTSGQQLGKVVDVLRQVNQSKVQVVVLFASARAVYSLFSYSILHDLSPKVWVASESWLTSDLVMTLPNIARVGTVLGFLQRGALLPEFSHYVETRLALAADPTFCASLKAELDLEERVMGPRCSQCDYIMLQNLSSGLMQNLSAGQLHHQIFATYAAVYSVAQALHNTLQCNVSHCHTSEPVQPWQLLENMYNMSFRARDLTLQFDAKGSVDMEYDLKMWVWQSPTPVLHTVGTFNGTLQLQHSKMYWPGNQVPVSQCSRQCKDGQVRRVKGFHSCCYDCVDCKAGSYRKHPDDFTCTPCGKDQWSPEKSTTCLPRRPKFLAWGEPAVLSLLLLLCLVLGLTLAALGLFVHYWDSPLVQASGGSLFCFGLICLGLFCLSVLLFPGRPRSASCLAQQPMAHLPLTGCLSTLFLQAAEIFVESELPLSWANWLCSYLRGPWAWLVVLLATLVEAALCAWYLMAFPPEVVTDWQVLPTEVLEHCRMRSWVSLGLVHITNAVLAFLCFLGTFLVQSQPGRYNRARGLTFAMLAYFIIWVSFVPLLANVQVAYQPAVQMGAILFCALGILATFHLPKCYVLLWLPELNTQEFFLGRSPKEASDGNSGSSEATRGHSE
As to the kind of experiment: calcium imaging in HEK-293 cells transiently transfected with rat T1R1, T1R3 and Gα15 or Gα15/i1. It counts as cell-based. To be noted: HEK-293 transiently transfected with rat T1R1, T1R3 and Gα15/i1; in the presence of 2.5 mM IMP. As to the method:
Rat T1R2 and T1R3 expression constructs were generated using the pEAK10 expression vector (Edge Biosystems). (Rat T1R1, T1R2, and T1R3 nucleic acid sequences are described in U.S. Provisional Application No. 60/339,472, incorporated by reference in its entirety herein). HEK-293 cells were grown and maintained at 37° C. in Dulbecco's Modified Eagle Medium (DMEM) supplemented with 10% FBS and MEM non-essential amino acids (Gibco BRL). For calcium-imaging experiments, cells were first seeded onto 24-well tissue-culture plates (approximately 100,000 cells per well), and transfected using Mirus Translt-293 (PanVera). Transfection efficiencies, which were estimated by cotransfection with an RFP expression vector, were typically approximately 70%. […] Calcium mobilization was monitored on an Axiovert S100 microscope equipped with an inverted 10×/0.5 LWD piano fluor objective (Zeiss) and a cooled CCD camera (Princeton Instruments). Fluorescence images were acquired at 480 nm excitation and 535 nm emission, and analyzed with Imaging Workbench 4.0 software (Axon Instruments). T1R receptor activity was quantitated by counting the number of responding cells 30 seconds after stimulus addition. […]

The values that follow come from patent US7208290B2, “Methods of co-expressing umami taste receptors and chimeric Gα15 variants” (Senomyx, Inc., priority 2002, dated 2007).

For the compound `N[C@@H](CC(=O)O)C(=O)O` [L-aspartate], the “response of cells (intracellular calcium increase, number of responding cells) to umami taste stimuli” value is on record as “responded”. Take `N[C@@H](CCC(=O)O)C(=O)O` [L-glutamate]: the “response of cells (intracellular calcium increase, number of responding cells) to umami taste stimuli” value is “responded”.
